From patent publication US8614201B2 (Janssen Pharmaceutica NV, priority 2009, dated 2013)

Target: Human TRPA1 (Homo sapiens, UniProt O75762)
Test: Assay 1: In vitro cellular testing of TRPA1 modulation (CHO-TREx, Fluo-3 calcium fluorescence, AITC agonist)
Assay type: cell-based
Parameters: expressed in transfected cells; host or cells: CHO-TREx cells (Invitrogen), vector pcDNA4/TO
Details: CHO-TREx cells expressing human TRPA1; Fluo-3 fluorescence (FLIPR/Tetra); agonist 15 μM allyl isothiocyanate (AITC); 30 minute antagonist incubation
Procedure, shortened: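 Tetracycline-induced CHO-TREx cells stably expressing human TRPA1, loaded with 4 μM Fluo-3 AM, preincubated 30 min with compound (serial dilution typically from 10 μM, three-fold steps) in HEPES saline pH 7.4. Fluorescence change over 3 min after 15 μM AITC; IC50 from Hill fit versus no-antagonist and 10 μM ruthenium red controls.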

Sequence of Human TRPA1 (O75762 whole entry): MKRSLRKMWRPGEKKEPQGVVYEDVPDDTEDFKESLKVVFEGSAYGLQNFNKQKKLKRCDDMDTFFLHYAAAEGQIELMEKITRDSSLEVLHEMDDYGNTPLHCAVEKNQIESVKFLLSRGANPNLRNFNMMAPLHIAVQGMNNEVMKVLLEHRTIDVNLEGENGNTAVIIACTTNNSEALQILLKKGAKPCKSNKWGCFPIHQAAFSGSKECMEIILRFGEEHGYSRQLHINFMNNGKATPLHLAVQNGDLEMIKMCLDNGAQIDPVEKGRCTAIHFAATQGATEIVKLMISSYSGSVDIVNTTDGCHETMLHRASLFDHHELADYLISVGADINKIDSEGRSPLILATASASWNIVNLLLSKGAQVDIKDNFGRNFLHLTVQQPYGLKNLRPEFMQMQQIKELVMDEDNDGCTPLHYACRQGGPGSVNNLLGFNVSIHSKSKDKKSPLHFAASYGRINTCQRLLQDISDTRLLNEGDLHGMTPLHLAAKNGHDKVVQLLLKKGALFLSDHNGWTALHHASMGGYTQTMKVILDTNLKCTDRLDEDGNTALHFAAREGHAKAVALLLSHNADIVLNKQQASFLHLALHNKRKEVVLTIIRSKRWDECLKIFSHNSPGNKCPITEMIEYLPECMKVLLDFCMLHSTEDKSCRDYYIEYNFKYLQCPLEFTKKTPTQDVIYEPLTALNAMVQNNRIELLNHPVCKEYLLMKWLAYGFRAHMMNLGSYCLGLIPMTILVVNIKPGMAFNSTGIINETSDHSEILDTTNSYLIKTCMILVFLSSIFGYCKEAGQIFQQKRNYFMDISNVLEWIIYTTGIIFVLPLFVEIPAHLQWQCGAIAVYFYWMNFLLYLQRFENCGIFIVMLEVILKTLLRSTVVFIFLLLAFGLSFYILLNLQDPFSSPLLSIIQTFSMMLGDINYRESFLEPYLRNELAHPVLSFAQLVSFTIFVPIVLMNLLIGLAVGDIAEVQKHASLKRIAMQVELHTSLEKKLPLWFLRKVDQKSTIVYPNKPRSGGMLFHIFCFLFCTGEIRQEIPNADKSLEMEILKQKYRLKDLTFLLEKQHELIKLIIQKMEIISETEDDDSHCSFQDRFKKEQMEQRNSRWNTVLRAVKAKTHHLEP

IC50 [nM] | Compound
66 | O=C(NCc1cc(-c2ccc(C(F)(F)F)cc2)ncn1)[C@@H]1CCCN1S(=O)(=O)c1ccc(Cl)cc1 [Example 152, 1-(4-Chlorobenzenesulfonyl)-pyrrolidine-2S-carboxylic acid [6-(4-trifluoromethyl-Phenyl)-pyrimidin-4-ylmethyl]-amide]
401 | O=C(NCc1cc(-c2ccc(C(F)(F)F)cc2)ncn1)[C@@H]1CCCN1S(=O)(=O)c1ccccc1F [Example 153, 1-(2-Fluorobenzenesulfonyl)-pyrrolidine-2S-carboxylic acid [6-(4-trifluoromethylphenyl)-pyrimidin-4-ylmethyl]-amide]
44 | O=C(NCc1cc(-c2ccc(C(F)(F)F)cc2)ncn1)[C@@H]1CCCN1S(=O)(=O)c1cccc(F)c1 [Example 154, 1-(3-Fluorobenzenesulfonyl)-pyrrolidine-2S-carboxylic acid [6-(4-trifluoromethylphenyl)-pyrimidin-4-ylmethyl]-amide]
1020 | Cc1ccccc1S(=O)(=O)N1CCC[C@H]1C(=O)NCc1cc(-c2ccc(C(F)(F)F)cc2)ncn1 [Example 155, 1-(Toluene-2-sulfonyl)-pyrrolidine-2S-carboxylic acid [6-(4-trifluoromethylphenyl)-pyrimidin-4-ylmethyl]-amide]
388 | Cc1cccc(S(=O)(=O)N2CCC[C@H]2C(=O)NCc2cc(-c3ccc(C(F)(F)F)cc3)ncn2)c1 [Example 156, 1-(Toluene-3-sulfonyl)-pyrrolidine-2S-carboxylic acid [6-(4-trifluoromethylphenyl)-pyrimidin-4-ylmethyl]-amide]
4690 | O=C(NCc1cc(-c2ccc(C(F)(F)F)cc2)ncn1)[C@@H]1CCCN1S(=O)(=O)c1cccc(C(F)(F)F)c1 [Example 157, 1-(3-Trifluoromethylbenzenesulfonyl)-pyrrolidine-2S-carboxylic acid [6-(4-trifluoromethylphenyl)-pyrimidin-4-ylmethyl]-amide]
587 | O=C(NCc1cc(-c2ccc(C(F)(F)F)cc2)ncn1)[C@@H]1CCCN1S(=O)(=O)c1ccc(C(F)(F)F)cc1 [Example 158, 1-(4-Trifluoromethylbenzenesulfonyl)-pyrrolidine-2S-carboxylic acid [6-(4-trifluoromethylphenyl)-pyrimidin-4-ylmethyl]-amide]
1090 | N#Cc1ccc(S(=O)(=O)N2CCC[C@H]2C(=O)NCc2cc(-c3ccc(C(F)(F)F)cc3)ncn2)cc1 [Example 159, 1-(4-Cyanobenzenesulfonyl)-pyrrolidine-2S-carboxylic acid [6-(4-trifluoromethylphenyl)-pyrimidin-4-ylmethyl]-amide]
77 | O=C(NCc1cc(-c2ccc(C(F)(F)F)cc2)ncn1)[C@@H]1CCCN1S(=O)(=O)c1ccccc1 [Example 160, 1-Benzenesulfonylpyrrolidine-2S-carboxylic acid [6-(4-trifluoromethylphenyl)-pyrimidin-4-ylmethyl]-amide]
137 | Cc1ccc(S(=O)(=O)N2CCC[C@H]2C(=O)NCc2cc(-c3ccc(C(F)(F)F)cc3)ncn2)cc1 [Example 161, 1-(Toluene-4-sulfonyl)-pyrrolidine-2S-carboxylic acid [6-(4-trifluoromethylphenyl)-pyrimidin-4-ylmethyl]-amide]
1700 | CC(=O)c1ccc(S(=O)(=O)N2CCC[C@H]2C(=O)NCc2cc(-c3ccc(C(F)(F)F)cc3)ncn2)cc1 [Example 162, 1-(4-Acetylbenzenesulfonyl)-pyrrolidine-2S-carboxylic acid [6-(4-trifluoromethylphenyl)-pyrimidin-4-ylmethyl]-amide]
14 | O=C(NCc1cc(-c2ccc(C(F)(F)F)cc2)ncn1)[C@@H]1CCCN1S(=O)(=O)c1ccc([N+](=O)[O-])cc1 [Example 163, 1-(4-Nitrobenzenesulfonyl)-pyrrolidine-2S-carboxylic acid [6-(4-trifluoromethylphenyl)-pyrimidin-4-ylmethyl]-amide]
11 | O=C(NCc1cc(-c2ccc(C(F)(F)F)cc2)ncn1)[C@@H]1CCCN1S(=O)(=O)c1cc(Cl)c(Cl)s1 [Example 165, 1-(4,5-Dichlorothiophene-2-sulfonyl)-pyrrolidine-2S-carboxylic acid [6-(4-trifluoromethylphenyl)-pyrimidin-4-ylmethyl]-amide]
14 | O=C(NCc1cc(-c2ccc(C(F)(F)F)cc2)ncn1)[C@@H]1CCCN1S(=O)(=O)c1ccc(Cl)s1 [Example 166, 1-(5-Chlorothiophene-2-sulfonyl)-pyrrolidine-2S-carboxylic acid [6-(4-trifluoromethylphenyl)-pyrimidin-4-ylmethyl]-amide]
63 | O=C(NCc1cc(-c2ccc(C(F)(F)F)cc2)ncn1)[C@@H]1CCCN1S(=O)(=O)c1ccco1 [Example 167, 1-(Furan-2-sulfonyl)-pyrrolidine-2S-carboxylic acid [6-(4-trifluoromethylphenyl)-pyrimidin-4-ylmethyl]-amide]
51 | O=C(NCc1cc(-c2ccc(C(F)(F)F)cc2)ncn1)[C@@H]1CCCN1S(=O)(=O)c1cc(F)cc(F)c1 [Example 169, 1-(3,5-Difluorobenzenesulfonyl)-pyrrolidine-2S-carboxylic acid [6-(4-trifluoromethylphenyl)-pyrimidin-4-ylmethyl]-amide]
20 | O=C(NCc1cc(-c2ccc(C(F)(F)F)cc2)ncn1)[C@@H]1CCCN1S(=O)(=O)c1cccs1 [Example 170, 1-(Thiophene-2-sulfonyl)-pyrrolidine-2S-carboxylic acid [6-(4-trifluoromethylphenyl)-pyrimidin-4-ylmethyl]-amide]
19 | O=C(NCc1cccc(-c2ccc(Cl)cc2)c1)[C@@H]1CCCN1S(=O)(=O)c1ccc(F)cc1 [Example 171, 1-(4-Fluorobenzenesulfonyl)-pyrrolidine-2S-carboxylic acid (4′-chlorobiphenyl-3-ylmethyl)-amide]
11 | O=C(NCc1cc(-c2ccc(C(F)(F)F)cc2)ncn1)[C@@H]1CCCN1S(=O)(=O)c1ccsc1 [Example 172, 1-(Thiophene-3-sulfonyl)-pyrrolidine-2S-carboxylic acid [6-(4-trifluoromethyl-phenyl)-pyrimidin-4-ylmethyl]-amide]
1150 | O=C(NCc1cc(-c2ccc(C(F)(F)F)cc2)ncn1)[C@@H]1CCCN1S(=O)(=O)c1cc(Cl)sc1Cl [Example 173, 1-(2,5-Dichlorothiophene-3-sulfonyl)-pyrrolidine-2S-carboxylic acid [6-(4-trifluoromethylphenyl)-pyrimidin-4-ylmethyl]-amide]
95 | O=C(NCc1cc(-c2ccc(C(F)(F)F)cc2)ncn1)[C@@H]1CCCN1S(=O)(=O)c1ccc(Cl)nc1 [Example 174, 1-(6-Chloropyridine-3-sulfonyl)-pyrrolidine-2S-carboxylic acid [6-(4-trifluoromethylphenyl)-pyrimidin-4-ylmethyl]-amide]
45 | O=C(NCc1cc(-c2ccc(C(F)(F)F)cc2)ncn1)[C@@H]1CCCN1S(=O)(=O)c1ccoc1 [Example 176, 1-(Furan-3-sulfonyl)-pyrrolidine-2S-carboxylic acid [6-(4-trifluoromethylphenyl)-pyrimidin-4-ylmethyl]-amide]
71 | O=C(NCc1cc(-c2ccc(OC(F)(F)F)cc2)ncn1)[C@@H]1CCCN1S(=O)(=O)c1ccc(F)cc1 [Example 177, 1-(4-Fluorobenzenesulfonyl)-pyrrolidine-2S-carboxylic acid [6-(4-trifluoromethoxyphenyl)-pyrimidin-4-ylmethyl]-amide]
203 | O=C(NCc1cc(-c2ccc(C(F)(F)F)nc2)ncn1)[C@@H]1CCCN1S(=O)(=O)c1ccc(F)cc1 [Example 178, 1-(4-Fluoro-benzenesulfonyl)-pyrrolidine-2S-carboxylic acid [6-(6-trifluoromethyl-pyridin-3-yl)-pyrimidin-4-ylmethyl]-amide]
229 | O=C(NCc1cc(-c2ccc(C(F)(F)F)cc2)ncn1)[C@@H]1CC(F)(F)CN1S(=O)(=O)c1ccc(F)cc1 [Example 179, (2S)-4,4-Difluoro-1-(4-fluoro-benzenesulfonyl)-pyrrolidine-2-carboxylic acid [6-(4-trifluoromethyl-phenyl)-pyrimidin-4-ylmethyl]-amide]
228 | O=C(NCc1cc(-c2ccc(C(F)(F)F)cc2)ncn1)[C@@H]1CC(F)(F)CN1S(=O)(=O)c1ccc(Cl)s1 [Example 180, (2S)-1-(5-Chloro-thiophene-2-sulfonyl)-4,4-difluoro-pyrrolidine-2-carboxylic acid [6-(4-trifluoromethyl-phenyl)-pyrimidin-4-ylmethyl]-amide]
20 | Cc1nc(CNC(=O)[C@@H]2CCCN2S(=O)(=O)c2ccc(F)cc2)cc(-c2ccc(C(F)(F)F)cc2)n1 [Example 183, 1-(4-Fluoro-benzenesulfonyl)-pyrrolidine-2S-carboxylic acid [2-methyl-6-(4-trifluoromethyl-phenyl)-pyrimidin-4-ylmethyl]-amide]
433 | O=C(NCc1nccc(-c2ccc(C(F)(F)F)cc2)n1)[C@@H]1CCCN1S(=O)(=O)c1ccc(F)cc1 [Example 185, (2S)-1-(4-Fluoro-benzenesulfonyl)-pyrrolidine-2-carboxylic acid [4-(4-trifluoromethyl-phenyl)-pyrimidin-2-ylmethyl]-amide]
227 | O=C(NCc1nccc(-c2ccc(C(F)(F)F)cc2)n1)[C@@H]1CCCN1S(=O)(=O)c1ccc(Cl)s1 [Example 186]
806 | O=C(NCc1ccnc(-c2ccc(C(F)(F)F)cc2)n1)[C@@H]1CCCN1S(=O)(=O)c1ccc(F)cc1 [Example 187, (2S)-1-(4-Fluoro-benzenesulfonyl)-pyrrolidine-2-carboxylic acid [2-(4-trifluoromethyl-phenyl)-pyrimidin-4-ylmethyl]-amide]
